Test results from patent US9840494B2, “Quinazoline derivative” (Tianjin Hemay Oncology Pharmaceutical Co., Ltd., priority 2013, dated 2017).
Like-named read-outs stand apart in the source and are kept apart here.

Experiments:
[1] = tested on: salmonella typhimurium TA97, TA98, TA100, TA1535, and TA102; settings: with or without S9; for mutagenicity on TA102 strain: doses of less than and equal to 150 μg/plate; for mutagenicity on TA97 strain: doses of less than and equal to 500 μg/plate; for mutagenicity on TA98, TA100 and TA1535 strains: doses of less than and equal to 1500 μg/plate
Method: Direct mutagen 1: Dexon (Dima Technology Inc.; Batch No.: 456-2D)
Indirect mutagen: 2-aminoanthracene, 2-AA (Sigma-Aldrich Inc.; Batch No.: STBB1901V)
Strains: histidine auxotrophic mutants of salmonella typhimurium TA97, TA98, TA100, TA1535, and TA102 (Institute of Laboratory Animal Science, Chinese Academy of Medical Sciences) are cryopreserved in liquid nitrogen.
Bacteria suspension cryopreserved in liquid nitrogen was quickly thawed in a 37° C. water bath. 100 μL bacteria suspension was withdrawn and seeded into 20 mL nutrient broth. After static culture in the dark at 37° C. for 16 h, the bacteria suspension was taken for mutagenicity assay.
The solution was filtered through a 0.22 μm filter membrane. 1.0 mL initial filtrate was discarded during filtrating. Then the filtrated test sample solution (15 mg/mL) was gradiently diluted with DMSO to solutions having the concentrations of 5, 1.5, 0.5 and 0.15 mg/mL.
The solution was filtered through a 0.22 μm filter membrane, 1.0 mL initial filtrate was discarded during filtrating. Then the filtrated test sample solution (15 mg/mL) was gradiently diluted with sterile water for injection to solutions having the concentrations of 5, 1.5, 0.5 and 0.15 mg/mL.
Dexon: an appropriate amount of Dexon was weighed and dissolved in sterile water for injection to obtain a solution with a concentration of 250 μg/mL. The solution was used after being filtered through 0.22 μm sterile filter membrane.
The solution was used after being filtered through 0.22 μm sterile filter membrane.
2-aminoanthracene: an appropriate amount of 2-aminoanthracene was weighed and dissolved in DMSO to obtain a solution with a concentration of 30 μg/mL. The solution was used after being filtered through 0.22 μm sterile filter membrane.
The Sprague-Dawley rat liver S9 fraction used in this assay was prepared on May 18, 2012 with Batch No.: 20120518. It was stored in liquid nitrogen and the protein concentration is 20.477 mg/mL, which can be used before May 17, 2014. Sterility test and biological activity detection met the requirements of the assay.
Before use, S9 mixture was formulated under sterile conditions. The formulated volume was determined by operator according to the requirements of the assay. Other solvents were formulated in accordance with the standard operating procedures of the Centre.
0.1 mL test article or control drug solution, 0.5 mL S9 mixture or PBS (pH7.4), and 2.0 mL top medium (containing about 0.05 mM histidine, about 0.05 mM biotin, about 0.6% agar, and about 0.5% NaCl) in sequence, and 0.1 mL bacteria culture solution finally were added into glass test tubes (10 mL). The mixture was rapidly mixed uniformly on a vortex mixer and poured into the surface of the bottom medium. The top medium was spread evenly over the surface of the basal medium by slight rotation.
The plates were placed on a horizontal table until the medium were solidified. Then the plates were inverted and cultured at 37° C. for 48 h (except for the TA102 strain, which was cultured for 72 h). The plates were withdrawn to count the number of visible revertant colonies per plate. The precipitation phenomenon of the test samples was observed when loading and at the end of culture. Three plates were tested for each group under activation and non-activation conditions, respectively.
If the results meet the following one or two criteria, it would be assessed as positive.

[2] = tested on: human epidermoid carcinoma cell line A431; test: In vitro inhibitory action on human tumor cells, A431 (MTT); assay type: cell-based; settings: MTT assay, usually 3 days, read-out: Inhibitory activity on human epidermoid cancer cell line A431 (IC50)
Method: (§1) Human epidermoid carcinoma cell line A431, human non-small cell lung cancer cell line HCC827, head and neck cancer cell lines Fadu and human pancreatic cancer cell line AsPC-1 were purchased from Cell Bank, Chinese Academy of Sciences.
(§2) 3.2 Cell culture method: cells were cultured in the complete medium at 37° C. under 5% CO2 and saturated humidity until logarithmic growth phase, i.e., adherent cells substantially approach complete confluence, and then collected for subsequent assay. For the adherent cells, they were firstly digested with trypsin/EDTA to detach.
(§3) 3.3 A certain number of cells were seeded into 96-well cell culture plates (hereinafter referred to as 96-well plates). […] Finally, total cellular protein in the wells was determined using SRB assay, or cell viability was determined with MTT assay.
(§4) 3.3.1 The cell seeding concentration was determined by cell growth curve assay which completely simulates compound inhibition assay process. […]
(§5) 3.4 Dilution and addition of compounds: the concentration of DMSO that can be tolerant by the cells was determined by DMSO tolerance assay, and thereby selecting the dilution and addition methods of compounds. The effects of different concentrations of DMSO on cell growth were determined by DMSO tolerance assay. […] Two methods are finally determined as follows. […]

[3] = target: T1, EGFR (L858R/T790M) (Homo sapiens, UniProt P00533, L858R/T790M); test: Inhibitory action on tyrosine kinase activity of mutant EGFR (L858R/T790M), Caliper; assay type: biochemical; settings: kinase 10 nM, ATP 19 μM, polypeptide 3 μM, 60 min
T1 construct: purchased Invitrogen Corporation PR8911A
T1 sequence (P00533 25-1210 T790M/L858R): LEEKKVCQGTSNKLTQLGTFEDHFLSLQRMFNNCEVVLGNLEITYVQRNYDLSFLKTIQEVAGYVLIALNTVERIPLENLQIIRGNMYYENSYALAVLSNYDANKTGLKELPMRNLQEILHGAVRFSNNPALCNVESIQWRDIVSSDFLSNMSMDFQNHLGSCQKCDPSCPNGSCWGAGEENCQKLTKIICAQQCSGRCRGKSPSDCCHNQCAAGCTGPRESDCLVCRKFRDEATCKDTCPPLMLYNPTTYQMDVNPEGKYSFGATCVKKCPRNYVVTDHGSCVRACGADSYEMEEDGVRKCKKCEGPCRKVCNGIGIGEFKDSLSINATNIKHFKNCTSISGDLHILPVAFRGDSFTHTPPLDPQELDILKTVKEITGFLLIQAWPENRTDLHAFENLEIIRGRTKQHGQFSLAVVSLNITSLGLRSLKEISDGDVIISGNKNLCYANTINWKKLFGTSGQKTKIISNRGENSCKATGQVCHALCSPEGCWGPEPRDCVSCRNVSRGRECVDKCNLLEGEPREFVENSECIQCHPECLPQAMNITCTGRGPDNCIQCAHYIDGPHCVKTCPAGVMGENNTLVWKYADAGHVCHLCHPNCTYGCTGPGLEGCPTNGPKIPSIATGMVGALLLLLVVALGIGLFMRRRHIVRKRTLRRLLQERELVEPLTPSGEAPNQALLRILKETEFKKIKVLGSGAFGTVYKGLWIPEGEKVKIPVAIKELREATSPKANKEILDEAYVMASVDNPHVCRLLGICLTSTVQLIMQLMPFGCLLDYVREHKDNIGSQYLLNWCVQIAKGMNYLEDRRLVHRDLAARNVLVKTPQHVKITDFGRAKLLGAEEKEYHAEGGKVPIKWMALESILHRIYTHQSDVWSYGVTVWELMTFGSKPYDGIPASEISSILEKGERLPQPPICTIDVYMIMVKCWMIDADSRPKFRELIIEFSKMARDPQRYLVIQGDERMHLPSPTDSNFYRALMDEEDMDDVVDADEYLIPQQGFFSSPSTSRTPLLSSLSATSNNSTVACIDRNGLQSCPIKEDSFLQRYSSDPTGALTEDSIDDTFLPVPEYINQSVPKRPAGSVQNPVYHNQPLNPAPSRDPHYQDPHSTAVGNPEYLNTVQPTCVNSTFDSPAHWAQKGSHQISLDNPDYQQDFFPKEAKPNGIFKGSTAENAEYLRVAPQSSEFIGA
Method: EGFR(L858R/T790M): Invitrogen Corporation, catalogue No. PR8911A
(§6) P22(polypeptide substrate): GL Biochem Ltd., catalogue No. 112393
(§7) 3.2 Formulation of Kinase Buffer: 50 mM HEPES, pH 7.5, 0.0015% Brij-35, 10 mM MgCl2, and 2 mM DTT(dithiothreitol).
(§8) 3.3 Formulation of Termination Solution: 100 mM HEPES, pH 7.5, 0.015% Brij-35, 0.2% Coating Reagent #3 (prepared by Caliper workstation), and 50 mM EDTA (ethylene diamine tetraacetic acid).
(§9) 3.4.1 Formulation of a 50-fold concentration of a compound: for example, if the final concentration of the compound for assay is 12.5 nM, 50-fold concentration is 625 nM. The 50-fold concentration of the compound working solution was subjected to a 4-fold dilution with DMSO in a 96-well plate to obtain seven diluted concentrations in total.
(§10) 3.4.2 Transferring the 5-fold concentration of compound to a reaction plate: 10 μl solution was transferred from each well of the above-mentioned 96-well plate to another 96-well plate, and then 90 μl kinase buffer was added. 5 μl solution was transferred from the above 96-well plate to a 384-well reaction plate. […]
(§11) 3.6 The substrate conversion rate data was read with Caliper. […]
(§12) Inhibition rate %=(max-conversion rate)/(max-min)x100%, wherein max refers to the conversion rate of the DMSO control, min refers to the conversion of enzyme-free control. IC50 values were determined by the inhibition curve.

[4] = target: T2, EGFR (L858R) (Homo sapiens, UniProt P00533, L858R); test: Inhibitory action on tyrosine kinase activity of mutant EGFR (L858R), Caliper; assay type: biochemical; settings: kinase 9 nM, ATP 111 μM, polypeptide 3 μM, 60 min
T2 construct: purchased Invitrogen Corporation PR7447A
T2 sequence (P00533 25-1210 L858R): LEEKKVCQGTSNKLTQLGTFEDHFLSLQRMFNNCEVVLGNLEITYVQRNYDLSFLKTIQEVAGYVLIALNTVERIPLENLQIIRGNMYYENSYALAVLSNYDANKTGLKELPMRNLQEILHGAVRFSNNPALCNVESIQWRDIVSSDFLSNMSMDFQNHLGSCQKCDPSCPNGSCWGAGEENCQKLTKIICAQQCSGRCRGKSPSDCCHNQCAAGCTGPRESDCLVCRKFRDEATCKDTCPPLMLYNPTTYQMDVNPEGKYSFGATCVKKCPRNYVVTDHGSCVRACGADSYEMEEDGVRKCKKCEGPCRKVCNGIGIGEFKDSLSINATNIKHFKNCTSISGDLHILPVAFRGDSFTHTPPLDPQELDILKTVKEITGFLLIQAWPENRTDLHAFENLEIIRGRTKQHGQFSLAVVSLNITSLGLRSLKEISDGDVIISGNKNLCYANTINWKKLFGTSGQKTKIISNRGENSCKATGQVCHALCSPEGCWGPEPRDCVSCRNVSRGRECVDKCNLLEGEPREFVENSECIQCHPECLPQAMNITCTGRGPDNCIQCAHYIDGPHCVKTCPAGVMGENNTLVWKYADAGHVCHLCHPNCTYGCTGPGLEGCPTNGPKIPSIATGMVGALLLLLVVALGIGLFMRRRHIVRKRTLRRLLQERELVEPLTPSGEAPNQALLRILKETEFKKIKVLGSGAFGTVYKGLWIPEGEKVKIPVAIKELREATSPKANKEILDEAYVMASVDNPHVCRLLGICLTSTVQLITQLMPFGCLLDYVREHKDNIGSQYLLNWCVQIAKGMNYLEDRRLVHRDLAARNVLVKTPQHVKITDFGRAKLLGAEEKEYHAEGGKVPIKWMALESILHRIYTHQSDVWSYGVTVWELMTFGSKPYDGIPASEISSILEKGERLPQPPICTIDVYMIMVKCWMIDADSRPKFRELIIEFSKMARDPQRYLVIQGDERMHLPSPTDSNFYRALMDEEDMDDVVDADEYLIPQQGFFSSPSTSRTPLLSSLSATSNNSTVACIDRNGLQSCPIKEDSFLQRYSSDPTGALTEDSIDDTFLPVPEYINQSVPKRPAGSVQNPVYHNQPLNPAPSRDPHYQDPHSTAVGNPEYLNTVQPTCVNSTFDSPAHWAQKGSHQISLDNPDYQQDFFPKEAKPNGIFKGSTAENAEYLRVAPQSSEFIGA
Method: EGFR(L858R): Invitrogen Corporation, catalogue No. PR7447A
as §6, §7, §8, §9, §10, §11, §12

[5] = tested on: human head and neck cancer cell lines Fadu; test: In vitro inhibitory action on human tumor cells, Fadu (MTT); assay type: cell-based; settings: 72 h, MTT assay, usually 3 days
Method: as §1, §2, §3, §4, §5

Compound	mutagenicity on TA102 strain [1]	mutagenicity on TA97 strain [1]	mutagenicity on TA98, TA100 and TA1535 strains [1]	IC50 ([2]; Homo sapiens, A-431, 72 h) [nM]	IC50 [3] [nM]	IC50 [4] [nM]	IC50 [2] [nM]	IC50 [5] [nM]
COCCOc1cc2ncnc(Nc3ccc(F)c(Cl)c3)c2cc1NC(=O)C=C1CCN(CCOC)CC1 [Compound 1, N-[4-(3-chloro-4-fluorophenylamino)-7-(2-methoxyethoxy)quinazolin-6-yl]-2-[1-(2-methoxyethyl)piperidin-4-ylidene]acetamide]	no mutagenicity	no mutagenicity	no mutagenicity	125	266	0.4	–	–
COCCOc1cc2ncnc(Nc3ccc(F)c(Cl)c3)c2cc1NC(=O)C=C1CCN(CCOC)CC1.CS(=O)(=O)O [Compound 3, N-[4-(3-chloro-4-fluorophenylamino)-7-(2-methoxyethoxy)quinazolin-6-yl]-2-[1-(2-methoxyethyl)piperidin-4-ylidene]acetamide dimethylsulfonate]	no mutagenicity	no mutagenicity	no mutagenicity	–	235	0.45	138	132
